Format in all cases: cell-based
For one data set, the target named is T1, APJ receptor (Homo sapiens, UniProt P35414).
T1 sequence (P35414 1-380): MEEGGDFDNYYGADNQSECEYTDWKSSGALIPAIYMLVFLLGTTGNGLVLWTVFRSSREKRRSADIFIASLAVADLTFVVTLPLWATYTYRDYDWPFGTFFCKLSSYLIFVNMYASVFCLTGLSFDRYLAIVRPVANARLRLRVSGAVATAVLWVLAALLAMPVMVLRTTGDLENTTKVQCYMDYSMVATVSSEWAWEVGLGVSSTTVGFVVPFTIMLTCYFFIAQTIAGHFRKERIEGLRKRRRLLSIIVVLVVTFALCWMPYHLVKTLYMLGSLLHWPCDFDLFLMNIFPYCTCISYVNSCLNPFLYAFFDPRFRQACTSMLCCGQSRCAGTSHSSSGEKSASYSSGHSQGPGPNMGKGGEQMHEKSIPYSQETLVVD
In words: Cellul'erk ERK phosphorylation assay in APJ-TREX cells. Also noted: expressed in transfected cells; host or cells: Human TRex (APJ-TREX) cells, doxycycline-inducible expression. To be noted: relative to max pyr-apelin-13 activity at 100 nM; 3 or 0.3 μM compound, 5 minutes.

In the next data set the target is CXCR4 receptor (Homo sapiens, UniProt P61073). The experiment in a line: Activity at CXCR4 receptor (selectivity, Gi-coupled GPCR). The following applies: FIGS. 6A-6C, selectivity vs. hAPJ.
The target in data set [1] is T2, human APJ receptor (hAPJ) (Homo sapiens, UniProt P35414).
T2 construct: expressed in transfected cells
T2 sequence (P35414 1-380): T1 sequence (P35414 1-380)
The experiment in a line: HTRF cAMP assay: inhibition of NKH477-stimulated cAMP in HEK cells stably expressing hAPJ. The following applies: for Emax: HEK293, read-out: % IA, bound stated; for % IA (cAMP inhibition, hAPJ HEK): intrinsic activity; for Ranking: composite class of EC50 (hAPJ), % IA and % histamine or formal (+) charge; for inhibition of NKH477-stimulated increase in cAMP, dose dependent: concentration response curves, FIGS. 1 and 2, HEK cells stably expressing APJ. In a few lines: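 HEK cells stably expressing hAPJ, induced with 1 nG/mL doxycycline and seeded overnight at 40 k/well. cAMP read by HTRF competitive immunoassay using cryptate-labeled anti-cAMP antibody and d2-labeled cAMP.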
A general note: In TR-FRET formats the signal depends on donor and acceptor labels being close together.

A further data set relates to rat peritoneal cells. The experiment in a line: Ex vivo histamine release assay in rat peritoneal cells (vs. Compound 48/80). In a few lines:
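Resident peritoneal cells were lavaged from male Sprague Dawley rats and kept in HBSS/20 mM HEPES/0.2% BSA at 25,000 cells/well. They were exposed for 30 min at room temperature to compound at 3 points (100, 10, 1 μM DMSO stocks, 1% DMSO final). Released histamine was measured by HTRF and normalised to total histamine after Triton lysis. Compound 48/80 was the reference.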

The mark [2] stands for this setting: HTRF cAMP Assay, per data of Table 6.
Setting [3] is: HTRF cAMP Assay, per data of Table 6, read-out: EC50 (hAPJ), inhibition of cAMP production, bound stated.
Where [4] appears, read: Table 6, hAPJ HEK cells, NKH477-stimulated cAMP, read-out: EC50 (cAMP inhibition, hAPJ HEK).

Like-named read-outs stand apart in the source and are kept apart here. Peptide text beside a SMILES is read from it.

Broadly, the EC50 is the concentration that produces a half-maximal response.

Sequence of CXCR4 receptor (P61073 whole entry): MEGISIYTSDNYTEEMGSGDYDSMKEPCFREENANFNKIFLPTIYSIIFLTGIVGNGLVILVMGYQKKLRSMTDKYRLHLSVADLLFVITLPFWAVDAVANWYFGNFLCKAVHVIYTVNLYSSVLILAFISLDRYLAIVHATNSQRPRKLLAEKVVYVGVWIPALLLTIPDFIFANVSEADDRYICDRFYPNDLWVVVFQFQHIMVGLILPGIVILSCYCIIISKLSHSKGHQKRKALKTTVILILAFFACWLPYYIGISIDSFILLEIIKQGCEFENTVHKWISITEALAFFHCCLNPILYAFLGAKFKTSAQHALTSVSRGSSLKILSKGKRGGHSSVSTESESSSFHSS

As for `CCCCCCCCCCCCCCCC(=O)N[C@@H](CC(=O)O)C(=O)N[C@H](C(=O)N[C@@H](Cc1ccccc1)C(=O)N[C@@H](CCC(N)=O)C(=O)N[C@@H](CO)C(=O)N[C@@H](CO)C(=O)N[C@@H](CCC(=O)O)C(=O)N[C@H](CCCCN)C(=O)N[C@@H](CCCNC(=N)N)C(=O)N[C@@H](CCCNC(=N)N)C(=O)N[C@@H](CO)C(=O)N[C@@H](C)C(=O)N[C@@H](CC(=O)O)C(=O)N[C@@H](CCC(N)=O)C(=O)N[C@@H](Cc1ccccc1)C(=O)N[C@H](C(N)=O)[C@@H](C)CC)C(C)C` [Compound 12] (HELM PEPTIDE1{[CCCCCCCCCCCCCCCC(=O)[*:2]].D.V.F.Q.S.S.E.[dK].R.R.S.A.D.Q.F.I.[am]}$$$$V2.0), the “Average % Activity (ERK agonist activity)” value (“Average % Activity” below) at APJ receptor was determined as 51.8%. The “activity at the CXCR4 receptor” value on CXCR4 receptor was “lack of dose-responsive activity”. The Emax in data set [1] (setting [2]) was at least 80%. Moreover, the concentration for a half-maximal effect (EC50) in data set [1] (setting [3]) is at most 25 nM. The half-maximal effective concentration (EC50) in data set [1] (setting [4]) was determined as 12 nM. Moreover, the “% IA (cAMP inhibition, hAPJ HEK)” value in data set [1] (Table 6, hAPJ HEK cells) was found to be 97%. For the same compound, in data set [1], the Ranking result was “***** (EC50≦25 nM (hAPJ), % IA≧80% and either % histamine≦35% or formal (+) charge≦1)”; the “inhibition of NKH477-stimulated increase in cAMP, dose dependent” value is recorded as “inhibited”. For the same compound, in the data set on rat peritoneal cells, the “Histamine (% vs. 48/80)” value amounted to 9%.
With `CCCCCCCCCCCCCCCC(=O)N[C@@H](CC(=O)O)C(=O)N[C@H](C(=O)N[C@@H](Cc1ccccc1)C(=O)N[C@@H](CCCNC(=N)N)C(=O)N[C@@H](CO)C(=O)N[C@@H](CO)C(=O)N[C@@H](CCC(=O)O)C(=O)N[C@H](CCCCN)C(=O)N[C@@H](CCCNC(=N)N)C(=O)N[C@@H](CCCNC(=N)N)C(=O)N[C@@H](CO)C(=O)N[C@@H](C)C(=O)N[C@@H](CC(=O)O)C(=O)N[C@@H](CCC(N)=O)C(=O)N[C@@H](Cc1ccccc1)C(=O)N[C@H](C(N)=O)[C@@H](C)CC)C(C)C` [Compound 13] (HELM PEPTIDE1{[CCCCCCCCCCCCCCCC(=O)[*:2]].D.V.F.R.S.S.E.[dK].R.R.S.A.D.Q.F.I.[am]}$$$$V2.0), on APJ receptor, the “Average % Activity” value amounted to 44.0%. In addition, the “activity at the CXCR4 receptor” value on CXCR4 receptor is listed as “lack of dose-responsive activity”. Further, in data set [1] (setting [2]), the Emax was at least 80%. Moreover, the 50% effective concentration (EC50) in data set [1] (setting [3]) is at most 25 nM; in data set [1] (setting [4]), 6 nM. Besides, in data set [1] (Table 6, hAPJ HEK cells), the “% IA (cAMP inhibition, hAPJ HEK)” value stood at 96%. In addition, the Ranking entry in data set [1] is “***** (EC50≦25 nM (hAPJ), % IA≧80% and either % histamine≦35% or formal (+) charge≦1)”. Also, the “inhibition of NKH477-stimulated increase in cAMP, dose dependent” value in data set [1] is reported as “inhibited”. Further, the “Histamine (% vs. 48/80)” value in the data set with rat peritoneal cells amounted to 17%.
With `CCCCCCCCCCCCCCCC(=O)N[C@H](C(=O)N[C@H](C(=O)N[C@@H](Cc1ccccc1)C(=O)N[C@@H](CCCNC(=N)N)C(=O)N[C@@H](CO)C(=O)N[C@@H](CO)C(=O)N[C@@H](CCC(=O)O)C(=O)N1CCC[C@H]1C(=O)N[C@H](CCCCN)C(=O)N[C@@H](CCCNC(=N)N)C(=O)N[C@@H](CCCNC(=N)N)C(=O)N[C@@H](CO)C(=O)N[C@@H](C)C(=O)N[C@@H](CC(=O)O)C(=O)N[C@H](C(=O)N[C@@H](Cc1ccccc1)C(=O)N1CCC[C@H]1C(N)=O)[C@@H](C)CC)C(C)C)[C@@H](C)O` [Compound 28] (HELM PEPTIDE1{[CCCCCCCCCCCCCCCC(=O)[*:2]].T.V.F.R.S.S.E.P.[dK].R.R.S.A.D.I.F.P.[am]}$$$$V2.0), the “Average % Activity” value on APJ receptor is reported as 34.7%. Also, the “activity at the CXCR4 receptor” value at CXCR4 receptor was “lack of dose-responsive activity”. Further, in data set [1] (setting [2]), the Emax was at least 80%. Moreover, the concentration giving a half-maximal response (EC50) in data set [1] (setting [3]) is at most 25 nM; in data set [1] (setting [4]), 17 nM. In data set [1] (Table 6, hAPJ HEK cells), the “% IA (cAMP inhibition, hAPJ HEK)” value is 99%. In addition, in data set [1], the Ranking result was “**** (EC50≦25 nM (hAPJ), % IA≧80% and either % histamine>35% or formal (+) charge>1)”.

The values are drawn from patent US20160159861A1, “APJ Receptor Compounds” (priority 2013, published 2016).
